Converted amounts (≈) assume the structure as drawn. Where two headings read alike, the source gives them in different places.
Key:
Ind+ Proteus spp = assay: In vitro MIC, 2010 surveillance isolates; assay type: cell-based; conditions: N=258
Acinetobacter = assay: In vitro MIC, 2010 surveillance isolates; assay type: cell-based; conditions: N=952
[1] = tested on: E. coli (ATCC 25922) biofilm; assay: MBEC assay, planktonic adhesion to 6, 12, 24 hour biofilms under sub-MIC treatment; assay type: cell-based, Escherichia coli
Method: The MBEC™ assay (formerly the Calgary biofilm device; Innovotech Inc., Canada) is a well-established high throughput assay for assessment of anti-biofilm activity of test agents in a 96-well format. Within this assay, the biofilm is formed on the plastic pegs of the plate lid. After inoculated media is introduced to the wells of the 96-well plate, the plate is placed in a shaking incubator to generate the necessary shear force for biofilm growth on the pegs. Following a suitable incubation time, the individual biofilms can be treated with varying concentrations of test agents (challenge plate). After the desired treatment time, the remaining biofilm-associated bacteria are retrieved from the pegs through sonication (recovery plate). Serial dilution and/or plating of the recovered bacterial suspension allow for the quantification of test agents' efficacy against pre-formed biofilms. Additionally, readout of the challenge plate from the biofilm treatment can be used to determine MIC values of test agents. The absence of growth in the recovery plate indicates complete biofilm eradication and the lowest concentration of a test agent that achieves this is designated as the minimum biofilm eradication concentration (MBEC). […]

[2] = tested on: E. coli (ATCC 25922) biofilm; assay: MBEC assay, inhibition of biofilm formation; assay type: cell-based, Escherichia coli
Method: The MBEC™ assay (formerly the Calgary biofilm device; Innovotech Inc., Canada) is a well-established high throughput assay for assessment of anti-biofilm activity of test agents in a 96-well format. Within this assay, the biofilm is formed on the plastic pegs of the plate lid. After inoculated media is introduced to the wells of the 96-well plate, the plate is placed in a shaking incubator to generate the necessary shear force for biofilm growth on the pegs. Following a suitable incubation time, the individual biofilms can be treated with varying concentrations of test agents (challenge plate). After the desired treatment time, the remaining biofilm-associated bacteria are retrieved from the pegs through sonication (recovery plate). Serial dilution and/or plating of the recovered bacterial suspension allow for the quantification of test agents' efficacy against pre-formed biofilms. Additionally, readout of the challenge plate from the biofilm treatment can be used to determine MIC values of test agents. The absence of growth in the recovery plate indicates complete biofilm eradication and the lowest concentration of a test agent that achieves this is designated as the minimum biofilm eradication concentration (MBEC). The MBEC™ assay is also amenable to assess potential synergistic effects of combination treatments, as well as efficacy of test agents in inhibiting or inducing biofilm formation.
The MBEC™ plates were inoculated with either 10^5 CFU/mL (low inoculum) or 10^7 CFU/mL (high inoculum) of stationary phase E. coli (ATCC 25922) with simultaneous addition of antibiotics to evaluate the progression of biofilm formation under antibiotic challenge. After 24 hour incubation, the bacteria were recovered and enumerated (as above). FIG. 6. […] FIG. 7.

[3] = tested on: E. coli (Carbapenem Resistant); assay: Broth microdilution MIC against UTI pathogens (Example 4); assay type: cell-based; conditions: Escherichia coli; 25 isolates
Method: (§1) Antimicrobial activities of Compound 1 against a variety of common pathogens found in UTI were determined using a standard broth microdilution method (CLSI in Methods for Dilution Antimicrobial Susceptibility Tests for Bacteria That Grow Aerobically, Approved Standard M7-A8, Clinical and Laboratory Standards Institute, Wayne, Pa. (USA), 2011, incorporated herein by reference) with slight modifications.

E. coli (ESBL phenotype) = assay: as above; assay type: cell-based; conditions: Escherichia coli; 2,743 isolates
Method: as §1

[4] = tested on: E. coli (non-ESBL phenotype); assay: as above; assay type: cell-based; conditions: Escherichia coli; 10,696 isolates
Method: as §1

[5] = In vitro activity at pH 6.0 in media; assay type: cell-based
protein = conditions: cited from earlier work

Which “Cumulative % Inhibition at MIC” value (Ind+ Proteus spp; MIC 1 μg/ml) does the source give for `CN(C)c1cc(CNCC(C)(C)C)c(O)c2c1C[C@H]1C[C@H]3[C@H](N(C)C)C(O)=C(C(N)=O)C(=O)[C@@]3(O)C(O)=C1C2=O` [Compound 1, 9-[(2,2-dimethyl-propylamino)-methyl]-minocycline] here?
Its value is 0.8%.

What about the “Cumulative % Inhibition at MIC” value (Ind+ Proteus spp; MIC 2 μg/ml) of the same compound?
The value was 3.1%.

And the “Cumulative % Inhibition at MIC” value (Ind+ Proteus spp; MIC 4 μg/ml)?
Its value is 26.0%.

And the “Cumulative % Inhibition at MIC” value (Ind+ Proteus spp; MIC 8 μg/ml)?
Its value is 58.1%.

What about the “Cumulative % Inhibition at MIC” value (Ind+ Proteus spp; MIC 16 μg/ml) of the same compound?
The value was 73.3%.

And the “Cumulative % Inhibition at MIC” value (Ind+ Proteus spp; MIC ≤0.5 μg/ml)?
The value was 0%.

What about the “Cumulative % Inhibition at MIC” value (Ind+ Proteus spp; MIC ≥32 μg/ml) of the same compound?
The value was 100%.

What about the “Cumulative % Inhibition at MIC” value (Acinetobacter; MIC 1 μg/ml) of the same compound?
The value was 44.1%.

What about the “Cumulative % Inhibition at MIC” value (Acinetobacter; MIC 2 μg/ml) of the same compound?
Its value is 73.1%.

What about the “Cumulative % Inhibition at MIC” value (Acinetobacter; MIC 4 μg/ml) of the same compound?
The value was 93.5%.

And the “Cumulative % Inhibition at MIC” value (Acinetobacter; MIC 8 μg/ml)?
The value was 98.5%.

What about the “Cumulative % Inhibition at MIC” value (Acinetobacter; MIC 16 μg/ml) of the same compound?
Its value is 99.5%.

And the “Cumulative % Inhibition at MIC” value (Acinetobacter; MIC ≤0.5 μg/ml, listed as head image P00018)?
Its value is 31.1%.

And the “Cumulative % Inhibition at MIC” value (Acinetobacter; MIC ≥32 μg/ml)?
Its value is 100%.

What about the “reduction in total biofilm-associated bacteria relative to controls” value ([1]; 24 hour biofilms, 4% of the MIC (0.046 μg/mL), planktonic bacteria present) of the same compound?
The value was “reduced by about a log”.

What about the “adhesion of planktonic bacteria to biofilms” value ([1]; sub-MIC concentrations, 6, 12, 24 hour biofilms) of the same compound?
Its value is “do not promote additional adhesion of planktonic bacteria”.

What about the “less bioburden of biofilm compared to control” value ([2]; 0.183 μg/mL (approx. 15% of MIC)) of the same compound?
Its value is “approx. 2 log units”.

What about the “lower total bioburden of biofilm vs controls” value ([2]; 0.743 μg/mL, 24 hour incubation) of the same compound?
Its value is 3-4 log units.

What about the “reduction of mean biofilm formation compared to controls” value ([2]; 0.74 p g/mL, high and low inoculum conditions, respectively) of the same compound?
The value was 3 to 4 log units.

And the “inhibition of biofilm formation” value ([2]; all doses above the MIC)?
The value was “strongly inhibits biofilm formation”.

And the “induction of biofilm formation” value ([2]; sub-MIC doses)?
Its value is “fail to induce biofilm formation”.

What about the MIC50 [3] of the same compound?
The MIC50 was 1 µg/mL (≈ 1.8 µM).

And the MIC90 [3]?
The MIC90 was 4 µg/mL (≈ 7.19 µM).

And the MIC50 (E. coli (ESBL phenotype))?
Its MIC50 is 1 µg/mL (≈ 1.8 µM).

What about the MIC90 (E. coli (ESBL phenotype)) of the same compound?
Its MIC90 is 4 µg/mL (≈ 7.19 µM).

And the MIC50 [4]?
Its MIC50 is 0.5 µg/mL (≈ 0.898 µM).

And the MIC90 [4]?
Its MIC90 is 2 µg/mL (≈ 3.59 µM).

And the “in vitro activity at pH 6.0 in media” value [5]?
Its value is “somewhat decreased”.

What does the source list for `CN(C)c1cc(NC(=O)CNC(C)(C)C)c(O)c2c1C[C@H]1C[C@H]3[C@H](N(C)C)C(O)=C(C(N)=O)C(=O)[C@@]3(O)C(O)=C1C2=O` [Tigecycline]?
protein binding (protein; 0.1 μg/mL, ultracentrifugation): 73%; protein binding (protein; 0.1 μg/mL, ultrafiltration): 71%; protein binding (protein; 1.0 μg/mL, ultracentrifugation): 79%; protein binding (protein; 1.0 μg/mL, ultrafiltration): 87%; protein binding, Ultracentrifugation (protein; Concentration 100 ng/mL): 73%; protein binding, Ultrafiltration (protein; Concentration 100 ng/mL): 71%; protein binding, Ultracentrifugation (protein; Concentration 1,000 ng/mL): 79%; protein binding, Ultrafiltration (protein; Concentration 1,000 ng/mL): 87%

Source: patent US10238670B2, “9-aminomethyl minocycline compounds and methods of use thereof in urinary tract infection (UTI) treatment” (Paratek Pharmaceuticals, Inc., priority 2016, dated 2019)
